This assay can be described thus: In vivo acute/dose response study of food intake in the HM2 system after SC dosing. Particulars: 6 hours post dosing, male NMRI mice. As to the method:
Animals: A total of seventy two (72) male NMRI mice 6-7 weeks old (approx. 25 g BW) at the time of arrival were obtained from Taconic (Denmark) and transferred to the Gubra test stables. Upon arrival the animals will be transferred into the HM2 cages and housed in groups of four. The animal room environment were controlled (targeted ranges: temperature 22 ± 2°C; relative humidity 50 ± 10%; light/dark cycle: 12 hours light, 12 hours dark, lights on from 6 AM to 6 PM. […] have ad libitum access to Altromin (Brogaarden, Denmark) and tap water.
Run-in period: Mice arrived at day -7. A minimum of 5-7 days of habituation to the system was allowed before study start. During these days, animals were handled daily to accustom them to the experimental paradigm.
Runs in the HM2 system: In total five runs were performed in the HM2 system. There were at least 4 days of washout between each run.
Acute effect of lipidated analogues: Mice were re-randomized and the acute effects of the lipidated compounds were tested in an acute setting. Mice were dosed in doses equimolar to the concentration of NMU found to be semi-efficacious.
Dose response study: Different doses of the analogues were tested in order to establish a dose response relationship. Mice were re-randomized and four different doses of the five lipidated analogues were tested over two different runs in the HM2 system and compared with NMU at […] and liraglutide at 0.05 µmol/kg.
Randomization and experimentation: Animals were randomized according to body weight the day of dosing and stratified into the following experimental groups based on mean cage weight (n=4-8): • Pilot (PD) study run 1 (dose finding of NMU): • 1: Vehicle (0.9% NaCl, pH ∼ 4.0 and 0.1% BSA) (n=4) • 2: Native human Neuromedin U (NMU-25), sc, 1 mg/kg (n=4) • 3: Native human Neuromedin U (NMU-25), sc, 3 mg/kg (n=4) • 4: Native human Neuromedin U (NMU-25), sc, 10 mg/kg (n=4) • 5: PYY3-36, sc 1 mg/kg (n=4) • Pilot (PD) study run 2 (dose finding of NMU): • 1: Vehicle (0.9% NaCl, pH ∼ 4.0 and 0.1% BSA) (n=4) • 2: Native human Neuromedin U (NMU-25), sc, 1 mg/kg (n=4) • 3: Native human Neuromedin U (NMU-25), sc, 3 mg/kg (n=4) • Acute effects of lipidated analogues: • 1: Vehicle (PBS + 0.1% BSA+ 5.4% DMSO) SC • 2: Liraglutide 0.2 mg/kg, sc, 0.05 pmol/kg (n=8) • 3: Human neuromedin U 25 (NMU), sc, 1 µmol/kg (n=8) • 5: SEQ ID NO 17, sc, 1 pmol/kg (n=8) • 6: SEQ ID NO 14, sc, 1 pmol/kg (n=8) • 7: SEQ ID NO 11, sc, 1 pmol/kg (n=8) • 8: SEQ ID NO 8, sc, 1 pmol/kg (n=8) • 9: SEQ ID NO 5, sc, 1 pmol/kg (n=8) • Dose response study run 1 • 1: Vehicle (0.9% NaCl, pH ∼ 4.1 and 0.1% BSA) (n=6) • 2: Liraglutide 0.2 mg/kg, sc, 0.05 pmol/kg (n=4) • 3: Human neuromedin U 25 (NMU), sc, 1 µmol/kg (n=5) • 8: SEQ ID NO 17, sc, 1 pmol/kg (n=4) • 9: SEQ ID NO 17, sc, 0.3 pmol/kg (n=5) • 10: SEQ ID NO 17, sc, 0.1 µmol/kg (n=5) • 11: SEQ ID NO 17, sc, 0.03 pmol/kg (n=5) • 12: SEQ ID NO 14, sc, 1 pmol/kg (n=4) • 13: SEQ ID NO 14, sc, 0.3 pmol/kg (n=5) • 14: SEQ ID NO 14, sc, 0.1 pmol/kg (n=5) • 15: SEQ ID NO 14, sc, 0.03 pmol/kg (n=5) • Dose response study run 2 • 1: Vehicle (0.9%NaCl, pH ∼ 4.0 and 0.1% BSA) (n=5) • 2: Liraglutide 0.2 mg/kg, sc, 0.05 pmol/kg (n=4) • 3: Human neuromedin U 25 (NMU), sc, 1 µmol/kg (n=4) • 4: SEQ ID NO 11, sc, 1 pmol/kg (n=4) • 5: SEQ ID NO 11, sc, 0.3 pmol/kg (n=5) • 6: SEQ ID NO 11, sc, 0.1 pmol/kg (n=5) • 7: SEQ ID NO 11, sc, 0.03 pmol/kg (n=5) • 8: SEQ ID NO 8, sc, 1 pmol/kg (n=4) • 9: SEQ ID NO 8, sc, 0.3 pmol/kg (n=5) • 10: SEQ ID NO 8, sc, 0.1 pmol/kg (n=5) • 11: SEQ ID NO 8, sc, 0.03 pmol/kg (n=5) • 12: SEQ ID NO 5, sc, 1 pmol/kg (n=4) • 13: SEQ ID NO 5, sc, 0.3 pmol/kg (n=5) • 14: SEQ ID NO 5, sc, 0.1 µmol/kg (n=5) • 15: SEQ ID NO 5, sc, 0.03 pmol/kg (n=5) Dosing: All dosing took place just prior to lights out in the afternoon. Doses was administered subcutaneously (sc) (dose volume 10 ml/kg), alternating the injection site from the left to the right side of the lower back and inguinal region, respectively. […]

We go through four compounds from patent EP2842965A1, “Neuromedin U analogs comprising serum albumin binding amino acid residue” (Gubra ApS, priority 2013, dated 2015).

Starred links: 1 amine or outer side, 2 acyl side, 3 side chain; linkers in the order of their positions; H or OH if unused. Residues, ends and D or L forms follow the SMILES beside them. Groups on a side chain read outwards from the residue. *: point of attachment. γGlu = O=C(O)[C@H](CCC(=O)[*:2])N[*:1]; Palmitoyl = CCCCCCCCCCCCCCCC(=O)*

Turning to `CCCCCCCCCCCCCCCC(=O)N[C@@H](CCC(=O)NCCCC[C@H](NC(=O)[C@H](CCC(N)=O)NC(=O)[C@H](CO)NC(=O)[C@H](C)NC(=O)[C@H](Cc1ccccc1)NC(=O)[C@@H]1CCCN1C(=O)[C@H](CO)NC(=O)[C@H](CCC(N)=O)NC(=O)[C@H](Cc1ccccc1)NC(=O)[C@H](CCC(=O)O)NC(=O)[C@H](CCC(=O)O)NC(=O)[C@H](CC(=O)O)NC(=O)[C@@H](NC(=O)[C@H](CCCNC(=N)N)NC(=O)[C@@H](N)Cc1ccccc1)C(C)C)C(=O)N[C@@H](CCCNC(=N)N)C(=O)NCC(=O)N[C@@H](Cc1ccc(O)cc1)C(=O)N[C@@H](Cc1ccccc1)C(=O)N[C@@H](CC(C)C)C(=O)N[C@@H](Cc1ccccc1)C(=O)N[C@@H](CCCNC(=N)N)C(=O)N1CCC[C@H]1C(=O)N[C@@H](CCCNC(=N)N)C(=O)N[C@@H](CC(N)=O)C(N)=O)C(=O)O` [SEQ ID NO 5] (H-FRVDEEFQSPFASQK([γGlu-Palmitoyl])RGYFLFRPRN-NH2), the “Percent food intake reduction 6 hours post SC dosing” value is, setting by setting: (0.03 µmol/kg) 41%; (0.1 µmol/kg) 41%; (0.3 µmol/kg) 61%; (1.0 µmol/kg) 76%.
Take `CCCCCCCCCCCCCCCC(=O)N[C@@H](CCC(=O)NCCCC[C@H](NC(=O)[C@H](C)NC(=O)[C@H](Cc1ccccc1)NC(=O)[C@@H]1CCCN1C(=O)[C@H](CO)NC(=O)[C@H](CCC(N)=O)NC(=O)[C@H](Cc1ccccc1)NC(=O)[C@H](CCC(=O)O)NC(=O)[C@H](CCC(=O)O)NC(=O)[C@H](CC(=O)O)NC(=O)[C@@H](NC(=O)[C@H](CCCNC(=N)N)NC(=O)[C@@H](N)Cc1ccccc1)C(C)C)C(=O)N[C@@H](CCC(N)=O)C(=O)N[C@@H](CO)C(=O)N[C@@H](CCCNC(=N)N)C(=O)NCC(=O)N[C@@H](Cc1ccc(O)cc1)C(=O)N[C@@H](Cc1ccccc1)C(=O)N[C@@H](CC(C)C)C(=O)N[C@@H](Cc1ccccc1)C(=O)N[C@@H](CCCNC(=N)N)C(=O)N1CCC[C@H]1C(=O)N[C@@H](CCCNC(=N)N)C(=O)N[C@@H](CC(N)=O)C(N)=O)C(=O)O` [SEQ ID NO 8] (H-FRVDEEFQSPFAK([γGlu-Palmitoyl])QSRGYFLFRPRN-NH2): the “Percent food intake reduction 6 hours post SC dosing” value runs as follows: (0.03 µmol/kg) 25%; (0.1 µmol/kg) 55%; (0.3 µmol/kg) 46%; (1.0 µmol/kg) 90%.
On to `CCCCCCCCCCCCCCCC(=O)N[C@@H](CCC(=O)NCCCC[C@H](NC(=O)[C@H](CCC(=O)O)NC(=O)[C@H](CC(=O)O)NC(=O)[C@@H](NC(=O)[C@H](CCCNC(=N)N)NC(=O)[C@@H](N)Cc1ccccc1)C(C)C)C(=O)N[C@@H](Cc1ccccc1)C(=O)N[C@@H](CCC(N)=O)C(=O)N[C@@H](CO)C(=O)N1CCC[C@H]1C(=O)N[C@@H](Cc1ccccc1)C(=O)N[C@@H](C)C(=O)N[C@@H](CO)C(=O)N[C@@H](CCC(N)=O)C(=O)N[C@@H](CO)C(=O)N[C@@H](CCCNC(=N)N)C(=O)NCC(=O)N[C@@H](Cc1ccc(O)cc1)C(=O)N[C@@H](Cc1ccccc1)C(=O)N[C@@H](CC(C)C)C(=O)N[C@@H](Cc1ccccc1)C(=O)N[C@@H](CCCNC(=N)N)C(=O)N1CCC[C@H]1C(=O)N[C@@H](CCCNC(=N)N)C(=O)N[C@@H](CC(N)=O)C(N)=O)C(=O)O` [SEQ ID NO 14] (H-FRVDEK([γGlu-Palmitoyl])FQSPFASQSRGYFLFRPRN-NH2), for which the “Percent food intake reduction 6 hours post SC dosing” value is on record as 5% (0.03 µmol/kg), 31% (0.1 µmol/kg), 79% (0.3 µmol/kg) and 89% (1.0 µmol/kg).
Regarding `CCCCCCCCCCCCCCCC(=O)N[C@@H](CCC(=O)NCCCC[C@H](NC(=O)[C@@H](NC(=O)[C@H](CCCNC(=N)N)NC(=O)[C@@H](N)Cc1ccccc1)C(C)C)C(=O)N[C@@H](CCC(=O)O)C(=O)N[C@@H](CCC(=O)O)C(=O)N[C@@H](Cc1ccccc1)C(=O)N[C@@H](CCC(N)=O)C(=O)N[C@@H](CO)C(=O)N1CCC[C@H]1C(=O)N[C@@H](Cc1ccccc1)C(=O)N[C@@H](C)C(=O)N[C@@H](CO)C(=O)N[C@@H](CCC(N)=O)C(=O)N[C@@H](CO)C(=O)N[C@@H](CCCNC(=N)N)C(=O)NCC(=O)N[C@@H](Cc1ccc(O)cc1)C(=O)N[C@@H](Cc1ccccc1)C(=O)N[C@@H](CC(C)C)C(=O)N[C@@H](Cc1ccccc1)C(=O)N[C@@H](CCCNC(=N)N)C(=O)N1CCC[C@H]1C(=O)N[C@@H](CCCNC(=N)N)C(=O)N[C@@H](CC(N)=O)C(N)=O)C(=O)O` [SEQ ID NO 17] (H-FRVK([γGlu-Palmitoyl])EEFQSPFASQSRGYFLFRPRN-NH2), the “Percent food intake reduction 6 hours post SC dosing” value (0.03 µmol/kg) was found to be 20%, the “Percent food intake reduction 6 hours post SC dosing” value (0.1 µmol/kg) is listed as 43%, the “Percent food intake reduction 6 hours post SC dosing” value (0.3 µmol/kg) turned out to be 64% and the “Percent food intake reduction 6 hours post SC dosing” value (1.0 µmol/kg) stood at 78%.
